Assay [1] has as its system Photobacterium sp. JH-ISH-224 α2-6-sialyltransferase Psp26ST(15-501)-His6 A366G mutant, SEQ ID NO: 2. Description: Sialyltransferase kinetics, Psp26ST(15-501)-His6 A366G mutant. It is filed as biochemical. As to conditions: apparent. The method, then: Reactions were carried out in duplicate at 20° C. for 20 minutes in a total volume of 10 μL in a proper buffer at the optimal pH according to the pH profile of the wild-type enzyme (see, Ding, 2011, supra). When LacβMU was used as an acceptor, the conditions were: Tris-HCl buffer (200 mM, pH 8.0), enzyme (0.3 μM), varied concentrations of LacβMU (0.1, 0.25, 0.4, 1.0, 2.0, 4.0, and 6.0 mM) with a fixed concentration of CMP-Neu5Ac (1.0 mM) or varied concentrations of CMP-Neu5Ac (0.1, 0.25, 0.4, 1.0, 2.0, 4.0, and 6.0 mM) with a fixed concentration of LacβMU (1.0 mM). When GalNAcα2AA was used as an acceptor, the conditions were: NaOAc-HOAc buffer (200 mM, pH 5.0), enzyme (6 μM), varied concentrations of GalNAcα2AA (0.5, 0.8, 1.0, 2.0, 4.0, 8.0, and 10.0 mM) and a fixed concentration of CMP-Neu5Ac (4.0 mM) or varied concentrations of CMP-Neu5Ac (0.5, 1.0, 2.0, 4.0, 5.0, 8.0, and 10.0 mM) with a fixed concentration of GalNAcα2AA (1.0 mM). When GalNAcαSer was used as an acceptor, the conditions were: Tris-HCl buffer (200 mM, pH 8.0), enzyme (0.6 μM), varied concentrations of GalNAcαSer (0.1, 0.25, 0.5, 1.0, 2.0, 4.0, 8.0, and 10.0 mM) and a fixed concentration of CMP-Neu5Ac (2.0 mM). When GalNAcαThr was used as an acceptor, the conditions were: Tris-HCl buffer (200 mM, pH 8.0), enzyme (3.0 μM), varied concentrations of GalNAcαThr (0.5, 1.0, 2.0, 4.0, 10.0, 20.0, 40.0, 60.0 mM) and a fixed concentration of CMP-Neu5Ac (4.0 mM). Results analysis was performed using the HPLC system as described above for sialyltransferase activity assays. Apparent kinetic parameters were obtained by fitting the experimental data (the average values of duplicate assay results) into the Michaelis-Menten equation using Grafit 5.0.

The test system of assay [2] is Photobacterium sp. JH-ISH-224 α2-6-sialyltransferase Psp26ST(15-501)-His6, wild type, SEQ ID NO: 23. As to conditions: apparent, cited from earlier work.
A short description of assay [3]: Sialyltransferase activity assays, statements not tied to one acceptor (LacβMU, GalNAcα2AA, GalNAcαSer, GalNAcαThr). It is filed as biochemical. The method, then: When LacβMU was used as an acceptor, the assay was performed in duplicate in 10 μL of Tris-HCl buffer (100 mM, pH 8.0) containing CMP-Neu5Ac (1 mM), LacβMU (1 mM), MgCl2 (20 mM), wild-type Psp2,6ST(15-501)-His6 or its mutant (0.3 μM). When an α-GalNAc-terminated acceptor was used, the assay was performed in duplicate in 10 μL of Tris-HCl buffer (100 mM, pH 8.0 for GalNAcαSer/Thr) or NaOAc-HOAc (100 mM, pH 5.0 for GalNAcα2AA) containing CMP-Neu5Ac (1.5 mM), the acceptor (1 mM), MgCl2 (20 mM), wild-type Psp2,6ST(15-501)-His6 or its mutant (3.0 μM). Reactions were allowed to proceed at 20° C. for 20 min and stopped by adding 10 μL of cold ethanol. The analysis of sialylated product conversion was performed using the HPLC system as described above for sialyltransferase activity assay. The 4-methylumbelliferone (MU)-labeled fluorescent acceptor and the product formed were detected with excitation at 325 nm and emission at 372 nm. The 2-aminobenzoic acid (2AA)-labeled fluorescent acceptors and the products formed were detected with excitation at 315 nm and emission at 400 nm. The 9-fluorenylmethylcarbamate (Fmoc)-labeled fluorescent acceptors and the products formed were detected with excitation at 262 nm and emission at 313 nm.

Assay [4] in a line: One-pot two-enzyme (OP2E) sialylation with NmCSS, GalNAcαThr as acceptor. It is filed as biochemical. Particulars: 2.5 equivalents of Neu5Ac and 5.0 equivalents of CTP. The source says: White bars: GalNAcαSer was used as an acceptor with 1 equivalent of Neu5Ac and 1.5 equivalents of CTP. Grey bars: GalNAcαSer was used as an acceptor with 2.5 equivalents of Neu5Ac and 5.0 equivalents of CTP. Black bars: GalNAcαThr was used as an acceptor with 2.5 equivalents of Neu5Ac and 5.0 equivalents of CTP.
In this system, CTP and Neu5Ac were used by NmCSS for the formation of CMP-Neu5Ac in situ (see also, Yu and Chen, et al. Bioorg. Med. Chem. 2004, 12, 6427-6435). CMP-Neu5Ac was used as the donor substrate for Psp26ST(15-501)-His6 or its mutants. […] For example, using 1 equivalent of Neu5Ac and 1.5 equivalents of CTP in the one-pot two-enzyme (OP2E) reaction (white bars in FIG. 6) improved the GalNAcαSer α2-6-sialylation reaction yields from less than 6% (1 equivalent CMP-Neu5Ac was used) (FIG. 5B) to 32-51% for W365A, W365G, W365S mutants. Similarly, the OP2E reaction improved the GalNAcαSer α2-6-sialylation reaction yields from 40% and 37% to 75% and 67% for A366G mutant and the wild-type enzyme, respectively. Increasing the concentrations of Neu5Ac and CTP to 2.5 and 5.0 equivalents further improved the reaction yields to more than 67% for Psp26ST(15-501)-His6 and its mutants ([…]). […] Therefore, in situ generation of CMP-Neu5Ac, the sugar nucleotide donor for sialyltransferases, was proven an efficient method to enhance the yields for sialylation reactions catalyzed not only by the wild-type enzymes but also sialyltransferase mutants.

Setting [5] is: varied LacβMU, CMP-Neu5Ac 1.0 mM, Tris-HCl pH 8.0, 20° C.

The values below come from patent US9938510B2, “Photobacterium sp. alpha-2-6-sialyltransferase variants” (The Regents of the University of California, priority 2014, dated 2018).

Where two headings read alike, the source gives them in different places.

For orientation: Km means the substrate concentration at which the rate is half of its maximum.

Consider `CC(=O)N[C@H]1[C@@H](O[C@H](C)[C@H](N)C(=O)O)O[C@H](CO)[C@H](O)[C@@H]1O` [GalNAcαOThr], for which the Km was 7.2 ± 3 mM in assay [1] (varied GalNAcαThr, CMP-Neu5Ac 4.0 mM, Tris-HCl pH 8.0, 20° C.) and 5.9 ± 1.6 mM in assay [2] (acceptor GalNAcαOThr).

Turning to `CC(=O)N[C@H]1[C@@H](OC[C@H](N)C(=O)O)O[C@H](CO)[C@H](O)[C@@H]1O` [GalNAcαOSer], the Km in assay [1] (varied GalNAcαSer, CMP-Neu5Ac 2.0 mM, Tris-HCl pH 8.0, 20° C.) was 1.7 ± 0.7 mM; in assay [2] (acceptor GalNAcαOSer), 1.4 ± 0.1 mM.

With `Cc1cc(=O)oc2cc(O[C@@H]3O[C@H](CO)[C@@H](O[C@@H]4O[C@H](CO)[C@H](O)[C@H](O)[C@H]4O)[C@H](O)[C@H]3O)ccc12` [LacβMU], the Km in assay [1] (setting [5]) is 0.41 mM; in assay [2] (acceptor LacβMU) it was 0.36 mM. In addition, the kcat entry in assay [1] (setting [5]) and in assay [2] (acceptor LacβMU) was “(1.0 ± 0.1) × 10^2 min^−1” throughout.

As for GalNAcα2AA, the Km in assay [1] (varied GalNAcα2AA, CMP-Neu5Ac 4.0 mM, NaOAc-HOAc pH 5.0, 20° C.) is 5.5 ± 1 mM; in assay [2] (acceptor GalNAcα2AA) it was 9.5 ± 2.7 mM.

B1: R153G: Psp26ST(15-501)-His6 with R153G point mutation; SEQ ID NO: 10 (protein)
chain: CNNSEENTQSIIKNDINKTIIDEEYVNLEPINQSNISFTKHSWVQTCGTQQLLTEQNKESISLSVVAPRLDDDEKYCFDFNGVSNKGEKYITKVTLNVVAPSLEVYVDHASLPTLQQLMDIIKSEEENPTAQRYIAWGGIVPTDEQMKELNITSFALINNHTPADLVQEIVKQAQTKHRLNVKLSSNTAHSFDNLVPILKELNSFNNVTVTNIDLYDDGSAEYVNLYNWRDTLNKTDNLKIGKDYLEDVINGINEDTSNTGTSSVYNWQKLYPANYHFLRKDYLTLEPSLHELRDYIGDSLKQMQWDGFKKFNSKQQELFLSIVNFDKQKLQNEYNSSNLPNFVFTGTTVWAGNHEREYYAKQQINVINNAINESSPHYLGNSYDLFFKGHPGGGIINTLIMQNYPSMVDIPSKISFEVLMMTDMLPDAVAGIASSLYFTIPAEKIKFIVFTSTETITDRETALRSPLVQVMIKLGIVKEENVLFWA
modifications: C-terminal His6; Synthetic Psp26ST(15-501) R153G
For the molecule B1, in assay [3], the “sialylation activity compared to wild-type” value is on record as “knocked out the sialylation activity completely”.

B2: W365G: Psp26ST(15-501)-His6 with W365G point mutation; SEQ ID NO: 4 (protein)
chain: CNNSEENTQSIIKNDINKTIIDEEYVNLEPINQSNISFTKHSWVQTCGTQQLLTEQNKESISLSVVAPRLDDDEKYCFDFNGVSNKGEKYITKVTLNVVAPSLEVYVDHASLPTLQQLMDIIKSEEENPTAQRYIAWGRIVPTDEQMKELNITSFALINNHTPADLVQEIVKQAQTKHRLNVKLSSNTAHSFDNLVPILKELNSFNNVTVTNIDLYDDGSAEYVNLYNWRDTLNKTDNLKIGKDYLEDVINGINEDTSNTGTSSVYNWQKLYPANYHFLRKDYLTLEPSLHELRDYIGDSLKQMQWDGFKKFNSKQQELFLSIVNFDKQKLQNEYNSSNLPNFVFTGTTVGAGNHEREYYAKQQINVINNAINESSPHYLGNSYDLFFKGHPGGGIINTLIMQNYPSMVDIPSKISFEVLMMTDMLPDAVAGIASSLYFTIPAEKIKFIVFTSTETITDRETALRSPLVQVMIKLGIVKEENVLFWA
modifications: C-terminal His6; Synthetic Psp26ST(15-501) W365G
With B2, the “yield of Neu5Acα2-6GalNAcαThr from GalNAcαThr, OP2E” value in assay [4] amounted to 91%.

B3: A124D: Psp26ST(15-501)-His6 with A124D point mutation; SEQ ID NO: 12 (protein)
chain: CNNSEENTQSIIKNDINKTIIDEEYVNLEPINQSNISFTKHSWVQTCGTQQLLTEQNKESISLSVVAPRLDDDEKYCFDFNGVSNKGEKYITKVTLNVVAPSLEVYVDHDSLPTLQQLMDIIKSEEENPTAQRYIAWGRIVPTDEQMKELNITSFALINNHTPADLVQEIVKQAQTKHRLNVKLSSNTAHSFDNLVPILKELNSFNNVTVTNIDLYDDGSAEYVNLYNWRDTLNKTDNLKIGKDYLEDVINGINEDTSNTGTSSVYNWQKLYPANYHFLRKDYLTLEPSLHELRDYIGDSLKQMQWDGFKKFNSKQQELFLSIVNFDKQKLQNEYNSSNLPNFVFTGTTVWAGNHEREYYAKQQINVINNAINESSPHYLGNSYDLFFKGHPGGGIINTLIMQNYPSMVDIPSKISFEVLMMTDMLPDAVAGIASSLYFTIPAEKIKFIVFTSTETITDRETALRSPLVQVMIKLGIVKEENVLFWA
modifications: C-terminal His6; Synthetic Psp26ST(15-501) A124D
With B3, the “sialylation activity compared to wild-type” value in assay [3] was “lost sialylation activity”.

B4: W365A: Psp26ST(15-501)-His6 with W365A point mutation; SEQ ID NO: 6 (protein)
chain: CNNSEENTQSIIKNDINKTIIDEEYVNLEPINQSNISFTKHSWVQTCGTQQLLTEQNKESISLSVVAPRLDDDEKYCFDFNGVSNKGEKYITKVTLNVVAPSLEVYVDHASLPTLQQLMDIIKSEEENPTAQRYIAWGRIVPTDEQMKELNITSFALINNHTPADLVQEIVKQAQTKHRLNVKLSSNTAHSFDNLVPILKELNSFNNVTVTNIDLYDDGSAEYVNLYNWRDTLNKTDNLKIGKDYLEDVINGINEDTSNTGTSSVYNWQKLYPANYHFLRKDYLTLEPSLHELRDYIGDSLKQMQWDGFKKFNSKQQELFLSIVNFDKQKLQNEYNSSNLPNFVFTGTTVAAGNHEREYYAKQQINVINNAINESSPHYLGNSYDLFFKGHPGGGIINTLIMQNYPSMVDIPSKISFEVLMMTDMLPDAVAGIASSLYFTIPAEKIKFIVFTSTETITDRETALRSPLVQVMIKLGIVKEENVLFWA
modifications: C-terminal His6; Synthetic Psp26ST(15-501) W365A
B4: the “yield of Neu5Acα2-6GalNAcαThr from GalNAcαThr, OP2E” value in assay [4] is on record as 85%.
